{"source": "patent US20220338473A1", "about": "“USE OF BENZYL ALCOHOL AS A HERBICIDE” (INNOVI, priority 2019, published 2022)", "key": {"[1]": {"tested_on": "Grass", "assay": "Non-selective activity on herbaceous plants (spraying, potted)", "format": "in vivo, grass of the ryegrass type", "conditions": "4 g benzyl alcohol (200 L/Ha) in 8 g total (400 L/Ha)", "description": "The non-selective character of benzyl alcohol was studied on 3 common varieties of herbaceous plants, two dicotyledons (dandelions and clover) and a monocotyledon (grass).\nThe grass of the ryegrass type makes it possible to confirm that the spectrum of action of benzyl alcohol is broad.\nThe assays were carried out on potted plants. The application of the product is carried out with a trigger spray bottle which makes it possible to spray 1 g of product per spraying, as microdroplets.\nThe treated plants are sprinkled with different quantities of water comprising different quantities of pure benzyl alcohol (PanReac AppliChem—ITW Reagents). The untreated (control) plants are sprinkled with the same total quantity of water only.\nThe plants are observed at the following times: T0, 6 h, 24 h, 48 h, 72 h, 96 h. The collapsing of the plant, the colour intensity and the diameter of the plant were measured as indicated in Example 1."}, "[2]": {"tested_on": "squares of grass", "assay": "Outdoor assays with benzyl alcohol used alone", "format": "in vivo", "description": "The outdoor assays were carried out on squares of grass having a surface area of 1 m^2. The application of the product is carried out with a compression sprayer which makes it possible to spray 20 to 100 g liquid over a surface area of 1 m^2 (equivalent to 200-1000 L/Ha).\nThe treated squares of grass are sprayed with a total quantity of water and pure benzyl alcohol (PanReac AppliChem—ITW Reagents) of 20 g (equivalent 200 l/Ha) including 0.5 g benzyl alcohol (equivalent to 5 L/Ha pure benzyl alcohol).\nThe control squares of grass receive a total quantity of 20 g water alone.\nThe following measurements and evaluations were carried out: • Percentage of the surface area affected: Following the assays in pots, it was noted that the change in colour correlated with the collapsing and the death of the plants. The time necessary to impact the colour of the grass as well as its surface area was evaluated. • Measurement of the collapsing of the grass: the distance between the ground and the highest part of 10 blades of grass selected at random in a square is measured. The average of these 10 blades is calculated and, after treatment, when this average distance is reduced by 30%, the collapsing time is determined.\nAssay no. 2 was carried out under the same conditions as assay no. 1, except that the treated squares of grass are sprayed with a total quantity of water and benzyl alcohol of 60 g (equivalent 600 L/Ha) including 5 g pure benzyl alcohol (equivalent to 50 L/Ha pure benzyl alcohol).\nAssay no. 3 was carried out under the same conditions as assay no. 1, except that the treated squares of grass are sprayed with a total quantity of 20 g pure benzyl alcohol (equivalent to 200 L/Ha pure benzyl alcohol).\nAssay no. 4 was carried out under the same conditions as assay no. 1, except that the treated squares of grass are sprayed with a total quantity of water and benzyl alcohol of 60 g (equivalent 600 L/Ha) including 40 g pure benzyl alcohol (equivalent to 400 L/Ha pure benzyl alcohol).\nAssay no. 5 was carried out under the same conditions as assay no. 1, except that the treated squares of grass are sprayed with a total quantity of water and benzyl alcohol of 100 g (equivalent 1000 L/Ha) including 60 g pure benzyl alcohol (equivalent to 600 L/Ha pure benzyl alcohol).\nAssay no. 6 was carried out under the same conditions as assay no. 1, except that the treated squares of grass are sprayed with a total quantity of 80 g pure benzyl alcohol (equivalent to 800 L/Ha pure benzyl alcohol)."}}, "data": [{"compound": "OCc1ccccc1", "note": "[benzyl alcohol]", "values": [{"measurement": "Collapsing (score and time): time to pass from score 5 (T0) to score 1", "setting": "[1]", "result": "1 to 48", "unit": "h"}, {"measurement": "Colour intensity (score and time): time to pass from score 5 (T0) to score 1", "setting": "[1]", "result": "1 to 24", "unit": "h"}, {"measurement": "Diameter (score and time): time to pass from score 5 (T0) to score 1", "setting": "[1]", "result": "1 to 48", "unit": "h"}, {"measurement": "Collapsing of the grass: time after treatment to average collapsing of 30%", "setting": "[2]; Assay no. 1: 1 m2 grass outdoors, 0.5 g benzyl alcohol (5 L/Ha) in 20 g total (200 l/Ha)", "result": 72, "unit": "h"}, {"measurement": "Maximum percentage of the surface area affected", "setting": "[2]; Assay no. 1: 1 m2 grass outdoors, 0.5 g benzyl alcohol (5 L/Ha) in 20 g total (200 l/Ha), observed 96 h after treatment", "result": 45, "unit": "%"}, {"measurement": "Collapsing of the grass: time after treatment to average collapsing of 30%", "setting": "[2]; Assay no. 2: 1 m2 grass outdoors, 5 g benzyl alcohol (50 L/Ha) in 60 g total (600 L/Ha)", "result": 48, "unit": "h"}, {"measurement": "Maximum percentage of the surface area affected", "setting": "[2]; Assay no. 2: 1 m2 grass outdoors, 5 g benzyl alcohol (50 L/Ha) in 60 g total (600 L/Ha), observed 72 h after treatment", "result": 60, "unit": "%"}, {"measurement": "Collapsing of the grass: time after treatment to average collapsing of 30%", "setting": "[2]; Assay no. 3: 1 m2 grass outdoors, 20 g pure benzyl alcohol (200 L/Ha)", "result": 48, "unit": "h"}, {"measurement": "Maximum percentage of the surface area affected", "setting": "[2]; Assay no. 3: 1 m2 grass outdoors, 20 g pure benzyl alcohol (200 L/Ha), observed 48 h after treatment", "result": 80, "unit": "%"}, {"measurement": "Collapsing of the grass: time after treatment to average collapsing of 30%", "setting": "[2]; Assay no. 4: 1 m2 grass outdoors, 40 g benzyl alcohol (400 L/Ha) in 60 g total (600 L/Ha)", "result": 24, "unit": "h"}, {"measurement": "Maximum percentage of the surface area affected", "setting": "[2]; Assay no. 4: 1 m2 grass outdoors, 40 g benzyl alcohol (400 L/Ha) in 60 g total (600 L/Ha), observed 24 h after treatment", "result": 100, "unit": "%"}, {"measurement": "Collapsing of the grass: time after treatment to average collapsing of 30%", "setting": "[2]; Assay no. 5: 1 m2 grass outdoors, 60 g benzyl alcohol (600 L/Ha) in 100 g total (1000 L/Ha)", "result": 6, "unit": "h"}, {"measurement": "Maximum percentage of the surface area affected", "setting": "[2]; Assay no. 5: 1 m2 grass outdoors, 60 g benzyl alcohol (600 L/Ha) in 100 g total (1000 L/Ha), observed 24 h after treatment", "result": 100, "unit": "%"}, {"measurement": "Collapsing of the grass: time after treatment to average collapsing of 30%", "setting": "[2]; Assay no. 6: 1 m2 grass outdoors, 80 g pure benzyl alcohol (800 L/Ha)", "result": 6, "unit": "h"}, {"measurement": "Maximum percentage of the surface area affected", "setting": "[2]; Assay no. 6: 1 m2 grass outdoors, 80 g pure benzyl alcohol (800 L/Ha), observed 6 h after treatment", "result": 100, "unit": "%"}]}]}
